According to US4196217A, “Hydroxylated amines with bacteriostatic activity” (priority 1978, dated 1980):
Values joined by “and” are separate entries in the source; they are usually repeats but may differ in a detail not shown here. Equal entries are not always repeated. Where two headings read alike, the source gives them in different places.

Tests used:
[1] = tested on: Staphyloccus aureus; assay: bacteriostatic activity (MIC), Staphylococcus aureus; type: cell-based; settings: Staphylococcus aureus, 48 h
Description: (§1) The medium containing the solution to be tested is inoculated in the form of three single striae with a 10^-5 times dilution of a bacterial culture aged 16 to 18 hours grown in salted peptone broth at a temperature of 37° C.
(§2) After inoculation, the media are stored at 37° C. for 48 hours, after which the bacterial growth is inspected. The MIC (minimum inhibiting concentrations) are expressed in micrograms of pure product per cubic centimeter of gelose medium required for inhibiting the culture (μg/cc). The control substance used is benzalconium chloride.
(§3) Tests were also carried out to determine the bacteriostatic activity of other compounds according to the invention by the method described above and in comparison with known substances, in particular with benzalconium chloride (compound T in the Tables).

[2] = tested on: Pseudomonas aeruginosa; assay: bacteriostatic activity (MIC), Pseudomonas aeruginosa; type: cell-based; settings: for MIC: Pseudomonas aeruginosa, 48 h
Description: as §1, §2, §3

[3] = tested on: Pneumobacille; assay: bacteriostatic activity (MIC), Pneumobacille; type: cell-based; settings: 48 h, Table I, 37° C., read-out: MIC
Description: (§4) The medium containing the solution to be tested is inoculated in the form of three single striae with a 10^-5 times dilution of a bacterial culture aged 16 to 18 hours grown in salted peptone broth at a temperature of 37° C. After inoculation, the media are stored at 37° C. for 48 hours, after which the bacterial growth is inspected. The MIC (minimum inhibiting concentrations) are expressed in micrograms of pure product per cubic centimeter of gelose medium required for inhibiting the culture (μg/cc). The control substance used is benzalconium chloride.

[4] = tested on: Serratia; assay: bacteriostatic activity (MIC), Serratia; type: cell-based; settings: Serratia, 48 h, Table I, 37° C., read-out: MIC
Description: as §4

[5] = tested on: Moraxella glucidolytica; assay: bacteriostatic activity (MIC), Moraxella glucidolytica; type: cell-based; settings: Moraxella, 48 h, Table I, 37° C., read-out: MIC
Description: as §4

[6] = tested on: Escherichia coli; assay: bactericidal activity, Escherichia coli; type: cell-based; settings: Table II, 2 hours contact, laboratory temperature, read-out: MIC (bactericidal activity)
Description: (§5) Bactericidal activity is determined by the following methods: A titrate suspension of bacteria is brought into contact over a period of 2 hours at the temperature of the laboratory with increasing dilutions of the test product. The number of bacteria still alive are counted after passage through a filtering membrane.

[7] = tested on: Pseudomonas aeruginosa; assay: bactericidal activity, Pseudomonas aeruginosa; type: cell-based; settings: Table II, 2 hours contact, laboratory temperature, read-out: MIC (bactericidal activity)
Description: as §5

[8] = tested on: Bacillus subtilis; assay: bactericidal activity, Bacillus subtilis; type: cell-based; settings: Table II, 2 hours contact, laboratory temperature, read-out: MIC (bactericidal activity)
Description: as §5

[9] = tested on: M pyogenes aureus; assay: bactericidal activity, M pyogenes aureus; type: cell-based; settings: Table II, 2 hours contact, laboratory temperature; read-out: MIC (bactericidal activity)
Description: as §5

[10] = tested on: Bacillus pyocyaneus; assay: MIC study in a solid medium on 35 strains of Bacillus pyocyaneus; type: cell-based; settings: Pseudomonas aeruginosa, majority of 35 strains, read-out: minimum inhibiting concentration
[11] = tested on: spores of B. subtilis var. Niger; assay: sporostatic activity (b), porous membrane with rinses; type: cell-based
Source text: (b) A porous membrane 0.45μ thick is placed aseptically in a sterile filter support, covered with 10 cc of sterile distilled water containing 1 cc of mother solution of the product, followed by the addition of 1 cc of a suspension of spores of B. subtilis var. Niger containing approximately 40 spores. These liquids are drawn through the membrane, after which the membrane is transferred aseptically to a culture medium and placed in an oven. The operation is recommenced using up to 5 rinses of the membrane per 10 cc of sterile distilled water. The number of colonies developing is then determined.

[12] = tested on: Bacillus pyocyaneus; assay: in vitro MIC on 100 strains of Bacillus pyocyaneus; type: cell-based; settings: Pseudomonas aeruginosa, read-out: minimum inhibiting concentration
Description: In vitro tests on the activity of the compound of Example 1 were also carried out so as to determine the activity of that compound on Bacillus pyocyaneus. The results of determining the minimum inhibiting concentration on 100 different strains are as follows: […]

[13] = tested on: Bacillus pyocyaneus; assay: bactericidal concentration on 6 different strains; type: cell-based
[14] = tested on: Ps. aeruginosa; assay: in vivo effect on infection of excised wounds in rats; parameters: species or system rats infected with Ps. aeruginosa
Description: The activity of the compound of Example 1 was also tested in vivo, in particular the compound was tested for its effect on Bacillus pyocyaneus in the following manner:
Rats are intravenously injected with 1 ml of a 10^8 solution of Ps. aeruginosa. A 20 cm^2 cutaneous excision was then made in the animals.
30 minutes after the injection, the bacteria injected were detected in the vicinity of the wound by the replica method on a solid nutritive medium.
One group of rats was sprayed with the compound of Example 1 (aqueous solution) in the vicinity of the wounds (1 to 3 times daily).
A group of control rats were sprayed with sterile distilled water.

[15] = acute toxicity, intragastric, mice; settings: mouse, in vivo, po, both after 48 hours and after 14 days
Description: The LD50 was calculated by the graphic method of J. T. Lichtfield and F. Wilcoxon (J. Pharm. Exp. Ther. 1949, 96: 99-[…]).

[16] = ocular irritation; type: in vivo; settings: 0.1 ml of a 0.5% solution
Description: The method used is the method described in the Official Journal of Apr. 21, 1971, page 3863, and comprises applying to the right eye of each animal 0.1 ml of a 0.5% solution. The general total of the results is 0 which confirms the high tolerance of the product mentioned above.

[17] = aggressiveness to the skin by repeated application; type: in vivo
Source text: The method used is the method described in the Official Journal of Apr. 28, 1971 for the analysis of cosmetics and beauty products, and comprises applying 0.5 cc of 2% solution over a period of 1 month to the two zones treated, one normal, the other raw, a control zone being reserved on the hindquarters of the animal.

[18] = Table I, with 20% of serum, 37° C., 48 hours, read-out: MIC
[19] = Table I, without serum, 37° C., 48 hours, read-out: MIC
[20] = Table VI, bacteriostase containing 20% of serum, read-out: M.I.C.
[21] = aqueous solution sprayed near wounds, 1 to 3 times daily

Q: For CCCCCCCCCCOCC(O)CN.Cl (stereo not shown) [Compound 1, 3-decyloxy-2-hydroxy-1-aminopropane hydrochloride], which MIC [1, 18] is on record?
A: The MIC was 120 µg/mL.

Q: And the MIC [1, 19]?
A: The MIC was 60 µg/mL.

Q: And the MIC [1, 20]?
A: Its MIC is 75 µg/mL.

Q: What about the MIC [2, 18] of the same compound?
A: The MIC was 150 µg/mL.

Q: And the MIC [2, 19]?
A: Its MIC is 40 µg/mL.

Q: What about the MIC [2, 20] of the same compound?
A: The MIC was 250 µg/mL.

Q: What about the M.I.C. ([2]; Table VI, bacteriostase containing 20% of serum, hydrochloride) of the same compound?
A: Its M.I.C. is 200 μg/cc and 400 μg/cc and 350 μg/cc.

Q: What about the MIC ([3]; with 20% of serum) of the same compound?
A: Its MIC is 75 µg/mL.

Q: And the MIC ([3]; without serum)?
A: Its MIC is 35 µg/mL.

Q: And the MIC ([4]; with 20% of serum)?
A: The MIC was 75 µg/mL.

Q: And the MIC ([4]; without serum)?
A: The MIC was 20 µg/mL.

Q: And the MIC ([5]; with 20% of serum)?
A: Its MIC is 75 µg/mL.

Q: And the MIC ([5]; without serum)?
A: Its MIC is 40 µg/mL.

Q: And the MBC [6]?
A: The MBC was 50 µg/mL.

Q: What about the MBC [7] of the same compound?
A: The MBC was 50 µg/mL.

Q: What about the MBC [8] of the same compound?
A: Its MBC is 50 µg/mL.

Q: What about the MBC [9] of the same compound?
A: The MBC was 100 µg/mL.

Q: And the MIC [10]?
A: Its MIC is 62.5 µg/mL.

Q: And the “number of colonies (No = 37)” value ([11]; 0 rinses of the membrane)?
A: The value was 3.

Q: And the “number of colonies (No = 37)” value ([11]; 1 rinse of the membrane)?
A: Its value is 4.

Q: And the “number of colonies (No = 37)” value ([11]; 2 rinses of the membrane)?
A: Its value is 35.

Q: What about the “number of colonies (No = 37)” value ([11]; 3 rinses of the membrane) of the same compound?
A: Its value is 38.

Q: What about the “number of colonies (No = 37)” value ([11]; 4 rinses of the membrane) of the same compound?
A: Its value is 48.

Q: What about the “number of colonies (No = 37)” value ([11]; 5 rinses of the membrane) of the same compound?
A: The value was 55.

Q: What about the MIC ([12]; 10 of 100 strains) of the same compound?
A: The MIC was 100 µg/mL.

Q: And the MIC ([12]; 20 of 100 strains)?
A: Its MIC is 25 µg/mL.

Q: And the MIC ([12]; 70 of 100 strains)?
A: Its MIC is 50 µg/mL.

Q: What about the bactericidal concentration [13] of the same compound?
A: Its bactericidal concentration is “very similar to the MIC”.

Q: What about the “number of colonies in positive cultures in relation to control rats” value [14, 21] of the same compound?
A: The value was “only a very small number of colonies”.

Q: And the “replica cultures totally negative” value [14, 21]?
A: Its value is 75%.

Q: What about the local tolerance ([14]; rat, in vivo) of the same compound?
A: The local tolerance was “good”.

Q: What about the healing process ([14]; sprayed near wounds, 1 to 3 times daily) of the same compound?
A: Its healing process is “normal”.

Q: And the LD50 [15]?
A: Its LD50 is 1300 mg/kg.

Q: And the “ocular irritation, general total of the results” value [16]?
A: The value was 0.

Q: And the “histological examination of skin” value ([17]; 0.5 cc of 2% solution over 1 month)?
A: The value was “did not reveal any significant modification”.

Q: And the “local tolerance (skin)” value ([17]; 0.5 cc of 2% solution over 1 month, normal and raw zones)?
A: Its value is “Good local tolerance”.

Q: What about the haematological examination ([17]; blood from the ear vein on completion of the test) of the same compound?
A: The haematological examination was “normal blood formula”.
